Results reported in patent US5985926A, “Method for inhibiting intracellular viral replication” (Cell Therapeutics, Inc., priority 1997, dated 1999).

Key:
[1] = system: HIV-LTR promoter (tat transactivation) in 293-EBNA cells; assay: AP reporter gene expression from HIV-LTR promoter with tat expression vector, 293-EBNA cells; format: cell-based, HIV; human cells; details: 293-EBNA cells, HIV promoter, in words
Source text: The plasmid construct, pHIV.AP, using the human immunodeficiency virus (HIV) long terminal repeat (LTR) promoter (derived from pU3R-III CAT, Sodroski et al., Science 227:171, 1985) to direct the expression of the sPAP reporter gene, was made by replacing the CMV promoter region from pCMV.AP with the HIV-LTR promoter. PHIV.AP was co-transfected with pSV2tat72, an expression vector for the 72 amino acids tat protein from HIV (Frankel and Pabo, Cell 55:1189-1193, 1988), into 293-EBNA cells (Invitrogen). The cultured cells were treated with various concentrations of the compounds. The expression of the alkaline phosphatase (AP) reporter gene in the individual cultures was measured by following change in absorbance at 405 nm of the cell conditioned media in the presence of a suitable substrate (e.g., ortho-nitrophenol phosphate) (Berger et al., Gene 66:1-10, 1988).
We set up a cell-based system with a cell line cotransfected with an expression plasmid using HIV-1-LTR promoter to direct synthesis of AP reporter gene and an expression plasmid to direct synthesis of the first 72 amino acids of tat protein. Plasmid pREP7 (Invitrogen) was converted to pREP7b by deleting 2,040 bp EBNA-1 coding region and by replacing the pBR322 origin of replication (ori) with the pBluescript KS (Stratagene) ori region. The cDNA for secreted placental alkaline phosphatase (AP) was generated by PCR with the primers (5'-[…]-3')(SEQ ID NO. 3) and (5'-[…]-3') (SEQ ID NO. 4)using the plasmid pGEM-4Z/PLAP489 (American Type Culture Collection) as the template. The 2,000 bp Xba I-Sal I fragment obtained was ligated into a Nhe I/Xho I vector derived from pREP7b to generate the plasmid pREP7b.AP. The 44 bp Xba I-Bgl II fragment from plasmid pMEP4 (Invitrogen)and the 36 bp BamH I-Kpn I fragment from pREP7 were ligated into the Xba I-Kpn I vector fragment from pREP7b.AP to generate the plasmid pMCS.AP. The 720 bp Xho I-Hind III fragment encoding the HIV-LTR promoter from the plasmid pU3R-III-CAT (Sodroski et al., Science 227:171-173, 1985) was ligated into the Xho I-Hind III vector fragment of PMCS.AP to generate the plasmid pHIV.AP. The CMV promoter was derived from the 600 bp Spe I-Asp718 I fragment from pCEP4 (Invitrogen). The 360 bp SV40 early promoter fragments were produced from pSV2tat72 (Frankel et al., Cell 55:1189-1193,1988) by PCR using the primers (5'-[…]-3') (SEQ ID NO. 5) and (5'-[…]-3') (SEQ ID NO. 6). The 480 bp phosphoglycerate kinase (PGK) promoter fragment was amplified from human placental genomic DNA (Promega, Madison, Wis.) based on published sequence (Pfeifer et al., Science 246:810-813, 1990) using the primers (5'-[…]-3') (SEQ ID NO. 7) and (5'-[…]-3') (SEQ ID NO. 8). The above fragments were ligated into the Xba I-Asp718 I vector fragment of pHIV.AP to generate pHIV2.AP, pHIV3.AP, pCMV.AP, pSVE.AP and PPGK.AP respectively. The tat-expression plasmid directed by HIV-LTR promoter, pHIV.tat, was generated by inserting the 400 bp EcoRV-HindIII fragment from pHIV.AP into the PvuII-HindIII vector fragment from pSV2tat72 (Frankel et al., Cell 55:1189-1193, 1988).
Transient transfections with various expression plasmids were performed on a human kidney embryonic cell line 293-EBNA (Invitrogen) using the cationic lipid DOTAP (Boehringer Mannheim). The cell culture media were changed 24 hr after transfection into a serum-free medium AIM V (Life Technologies) before addition of compounds or TNF-α (PeproTech) at the appropriate concentrations. AP activity measured by a colorimetric assay (Berger et al., Gene 66:1-10, 1988) was performed 19-24 hr later.

293-EBNA cells [2] = system: 293-EBNA cells
293-EBNA cells [3] = assay: Viability of 293-EBNA cells, Alamar Blue; format: cell-based, human
Protocol: (§1) Cell viability was measured by a colorimetric assay that uses Alamar Blue dye (Alamar, Inc.) to report cell proliferation, viability and cytotoxicity. This vital dye indicates cell activity by serving as substrate for mitochrondrial dehydrogenases for the formation of soluble dyes which can be quantitated by determining the difference in absorbance between A570 and A600 using a plate reader.
as §1, with “[…]” for “colorimetric”
This example illustrates that CT2576 suppressed both tat-dependent and TNF-α induced HIV-LTR transcription with an IC50 of approximately 10 μM. Study of the effects of CT2576 on cell toxicity was performed using the Alamar Blue™ dye (Alamar Biosciences) according to the manufacturer's instructions. CT2576 was not toxic to 293-EBNA cells at concentrations up to 35 μM. To show CT2576 can inhibit HIV expression, CT2576 was tested for the ability to block HIV p24 antigen expression in chronically or acutely infected cells. Specifically, CT2576 inhibited the TNF-α and IL-6 induced and the constitutive expression of HIV in the chronically infected U1 cells and in peripheral blood lymphocytes (PBL) freshly infected with a HIV strain from a clinical isolate with an IC50 of approximately 1 μM. Pharmacological inhibition of synthesis of selected PL may therefore be a novel therapeutic approach to suppression of HIV replication.

[4] = system: CMV promoter in 293-EBNA cells; assay: AP reporter gene expression from CMV promoter, 293-EBNA cells stably transfected with pCMV.AP; format: cell-based, human cytomegalovirus; human cells; details: for IC50: Homo sapiens, 293-EBNA stably transfected with pCMV.AP (FIG. 6), read-out: IC50, AP reporter gene expression (pCMV.AP); for inhibition of AP expression (CMV promoter): in words
Protocol: An assay for measuring the anti-viral activity of the compounds involves testing the abilities of the compounds to inhibit gene expression directed by specific viral promoters in cell lines. Specifically, a plasmid construct, pCMV.AP, using the human cytomegalovirus (CMV) enhancer and promoter to direct the expression of the secreted human placental alkaline phosphatase reporter gene were transformed into a tumor cell line (e.g., 293-EBNA cells). The cultured cells were treated with various concentrations of the compounds. The expression of the alkaline phosphatase (AP) reporter gene in the individual cultures can then be measured by following the change in absorbance at A405 of the cell conditioned media in the presence of a suitable substrate (e.g., ortho-nitrophenol phosphate) (Berger et al., Gene 66:1,1988).
The construction of expression vectors for secreted placental alkaline phosphatase (sPAP) was performed by obtaining a mammalian episomal expression vector pBL3, derived from the plasmids pMEP4 and pCEP4 (Invitrogen Corp). Specifically, a 600 bp Spe I--Kpn I fragment spanning the CMV promoter from pCEP4 and a 9500 bp Xba I--Kpn I vector fragment from pMEP4 were isolated and ligated together to form pBL3. Full length sPAP cDNA was amplified by PCR using the plasmid pGEM4Z/SEAP (ATCC) as template with primers 5'-[…]-3' (SEQ ID NO. 1) and 5'-[…]-3' (SEQ ID NO. 2). The PCR product was then digested with Xba I and Sal I and inserted between the Nhe I site and the Xho I site within the multiple cloning region of pBL3. The resulting plasmid was designated as PCMV.AP.

[5] = system: PA (phosphatidic acid) formation in tat-transfected and tar-transfected cells; assay: PA mass / myrPA formation in serum-stimulated EB293, 293tat and 293tar cells; format: cell-based, human
Protocol: Transformed and serum-stimulated cells were measured for total PA mass according to the methods described herein. […] The columns in FIG. 18 represent: (1) EB293 cells plus serum, (2) EB293 cells plus serum plus CT3556 (10 μM.), (3) 293tat cells plus serum, (4) 293tat cells plus serum plus CT3556 (10 μM.), (5) 293tar cells plus serum, and (6) 293tar cells plus serum plus CT3556 (10 μM.).
This procedure begins with those cells that would be normally infected with a virus, such as a retrovirus. However, it is not necessary to utilize a cell line containing a retroviral genome, such as U1 cells. In view of the necessity to utilize containment facilities when using an infected cell line, it is preferable to utilize a macrophage cell line that is not infected. Examples of appropriate macrophage cell lines include, U937, THP1, U1, and P288s (available from standard sources, such as ATCC). The cells are stimulated with a stimulant with or without a candidate drug. Examples of stimulants include 3-5% serum, such as fetal calf serum, or tumor necrosis factor (TNF) (e.g., 20 ng/ml) both of which are standard laboratory reagents. After a time course (within 5 minutes, preferably within 1 minute), the cells are immersed in ice cold methanol to stop any cellular signaling reactions.
One must first quantitatively and qualitatively separate PAs from the other lipids found in serum by a chemical extraction of lipids and high performance liquid chromatography (HPLC) to separate and detect PAs. Chemical extraction can be accomplished, for example, by the method of Bligh et al. (Canadian J. Biochem. Physiol. 37:911-917, 1959) or that of Folch et al. (J. Biol. Chem. 226:497-509, 1957). Briefly, the method of Bligh et al. involves an organic extraction of lipids from biological tissue homogenates or fluids. One volume of sample and three volumes of methanol:chloroform (2:1) are vigorously shaken for 2 min. One volume of chloroform is added and then shaken vigorously for 30 sec. One volume of water is added and then shaken vigorously for 30 sec. The mixture is filtered and the upper aqueous layer is discarded. The lower organic layer contains a mixture of lipid classes. The method of Folch et al. involves the extraction of lipids from biological tissue homogenates or body fluids. One volume of sample plus 20 volumes of chloroform:methanol (2:1) are vigorously shaken for 2 min. The mixture is filtered and an amount of 0.1 N KCl equal to 20% of the extraction mixture volume is added and the mixture is shaken vigorously for 2 min. The aqueous and organic phases are allowed to separate. The upper aqueous layer is discarded. The lower organic layer contains a mixture of lipid classes. Free fatty acids and neutral lipids can be separated from phospholipids by normal phase high performance liquid chromatography (HPLC) by modifying the method of Van Kessel et al. (Biochim et Biophys Acta 486:524-530, 1977). This method involves separation of lipids into their major classes by normal phase (silica) high performance liquid chromatography (HPLC). A 5 micron, 25 cm×0.45 cm silica HPLC column is connected to a binary solvent delivery system followed with a UV detector. The lipid sample is injected on the column and a solvent gradient is run at 1.0 ml/min. […]
Transformed and serum-stimulated cells were measured for total PA mass according to the methods described herein. […]

Row | Structure (SMILES) | inhibition of AP expression (HIV-LTR promoter) [1] | effect on cell viability / cytotoxicity (293-EBNA cells [2]) | cytotoxic effect on 293-EBNA cells (Alamar Blue) (293-EBNA cells [3]) | IC50 [4] [µM] | inhibition of AP expression (CMV promoter) [4] | inhibition of myrPA formation in stimulated cells ([5]; 10 μM, tat-transfected cells stimulated with serum) | PA mass, 293tar cells plus serum ([5]; CT3556 10 μM (FIG. 18)) | PA mass, 293tat cells plus serum ([5]; CT3556 10 μM (FIG. 18))
1 | CCCCCCNCCCC(O)CCCCCCCn1c(=O)c2c(ncn2C)n(C)c1=O (stereo not drawn) [CT2575, 1-(11-hexylamino-8-hydroxyundecyl)-3,7-dimethylxanthine] | inhibit HIV promoter driven expression | minimal cytotoxic effects | no significant cytotoxic effect | 3 | inhibit CMV promoter driven expression |  |  | 
2 | CCCCCCCCCCNCC(O)CCCCCCCn1c(=O)c2c(ncn2C)n(C)c1=O (stereo not drawn) [CT2571, 1-(9-decylamino-8-hydroxynonyl)-3,7-dimethylxanthine] |  |  | cytotoxic | 8 |  |  |  | 
3 | Cn1cnc2c1c(=O)n(CCCCCCCCCC(O)CNc1ccccc1)c(=O)n2C (stereo not drawn) [CT3528, N-(11-phenylamino-10-hydroxundecyl)-3,7-dimethylxanthine] |  |  | no significant cytotoxic effect |  | No appreciable inhibition of AP expression |  |  | 
4 | CCCCCCCCNCCCCCCCCCCCn1c(=O)c2c(ncn2C)n(C)c1=O [CT3556, 1-(11-N-octylaminoundecyl)-3,7-dimethylxanthine] |  |  |  |  |  | inhibited myrPA formation in stimulated cells | significant drop in PA mass | increase in PA was blocked
